pEC50: −log10 of the molar value.

The first assay deals with parasites (ring stage, in human red blood cell culture). The experiment in a line: Parasite LDH growth assay (antiparasite potency, Parasite Assay). The class given is cell-based, Plasmodium falciparum. The conditions noted are these: 0.7% rings, 2% haematocrit, 72 hours at 37° C., LDH readout of parasite growth. The essentials:
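Growth was read by an LDH assay after a freeze–thaw cycle (−80 °C overnight, 4 h thaw at RT). Before that, parasites grew with compound for 72 h at 37 °C under gassed, humidified conditions. The input was a ring-stage culture adjusted to 0.7% parasitemia and 2% haematocrit in serum (5%)/albumax (0.5%)-supplemented RPMI-Hepes.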
The pEC50 is the EC50 on a negative log10 scale, so that one unit is a factor of ten. Read a high pEC50 as a low EC50. Compound `CCC1(CC)CC(=O)N([C@@H]2CCOc3ccc(C(=O)NC4c5cc(F)ccc5OCC4(C)O)cc32)C(=N)N1` (single isomer, unassigned) [Example 226A] had a pEC50 of 8.59.
The same measure, in the same setting: as for `COCC1(C)Oc2ccc(C(=O)N[C@@H]3c4ccccc4OC(C)(C)[C@H]3O)cc2C1N1C(=N)NC(C)(C)CC1=O` (stereo partly drawn) [Example 257, N-[(3S,4R)-3-hydroxy-2,2-dimethyl-chroman-4-yl]-3-(2-imino-4,4-dimethyl-6-oxo-hexahydropyrimidin-1-yl)-2-(methoxymethyl)-2-methyl-3H-benzofuran-5-carboxamide], the figure is 6.72; as for `CCC1(CC)CC(=O)N([C@@H]2CCOc3ccc(C(=O)NC4c5cc(F)ccc5OCC4(C)O)cc32)C(=N)N1` (single isomer, unassigned) [Example 226C], 6.56.
The same measure, in the same setting: the figure for `CC[C@]1(C)CC(=O)N([C@@H]2CCOc3ccc(C(=O)NC4c5c(F)cccc5OCC4(C)O)cc32)C(=N)N1` (single isomer, unassigned) [Example 193B] is 9.10; for `CCC1(CC)CC(=O)N([C@@H]2CCOc3ccc(C(=O)NC4c5ccccc5CC4(O)C(F)(F)F)cc32)C(=N)N1` (single isomer, unassigned) [Example 272B] it is 7.84; for `CCC1(CC)CC(=O)N([C@@H]2CCOc3ccc(C(=O)NC4c5ccccc5OC4(C)COC)cc32)C(=N)N1` (single isomer, unassigned) [Example 64D] it is 7.38.
The same measure, in the same setting: as for `CCC1(CC)CC(=O)N([C@H]2c3cc(C(=O)N[C@@H]4c5ccccc5OC(C)(C)[C@H]4O)ccc3OC2(C)COC)C(=N)N1` (single isomer, unassigned) [Example 73B], the figure is 8.77; as for `CCC1(CC)CC(=O)N([C@@H]2CCOc3ccc(C(=O)NC4c5ccccc5OC4(C)CO)cc32)C(=N)N1` (single isomer, unassigned) [Example 176D], 6.94; as for `COCC1(C)CC(N2C(=N)NC(C)(C)CC2=O)c2cc(C(=O)N[C@@H]3c4ccccc4OC(C)(C)[C@H]3O)ccc2O1` (single isomer, unassigned) [Example 282B], 7.39.
`CCC1(CC)CC(=O)N([C@@H]2CCS(=O)(=O)c3ccc(C(=O)N[C@H]4CC(C)(C)Oc5ccccc54)cc32)C(=N)N1` [Example 289, (4R)-4-(4,4-diethyl-2-imino-6-oxo-hexahydropyrimidin-1-yl)-N-[(4S)-2,2-dimethylchroman-4-yl]-1,1-dioxo-3,4-dihydro-2H-thiochromane-6-carboxamide] had a pEC50 of 9.22.

The assay is the same for the next values; noted with them: Plasmodium falciparum, Erythrocyte, 72 h, 0.7% rings, 2% haematocrit, 72 hours at 37° C., LDH readout of parasite growth.
The compound `CC[C@]1(C)CC(=O)N([C@H]2c3cc(C(=O)N[C@@H]4c5ccccc5C[C@H]4O)ccc3OCC2(C)C)C(=N)N1` [Example 126, (4R)-4-[(4R)-4-ethyl-2-imino-4-methyl-6-oxo-hexahydropyrimidin-1-yl]-N-[(1R,2R)-2-hydroxyindan-1-yl]-3,3-dimethyl-chromane-6-carboxamide] showed a pEC50 of 7.84.
As to `CC[C@]1(C)CC(=O)N([C@@H]2C[C@@H](COC(F)F)Oc3ccc(C(=O)N[C@@H]4c5ccccc5OC[C@@]4(C)O)cc32)C(=N)N1` [Example 300, (2S,4R)-2-(difluoromethoxymethyl)-4-[(4R)-4-ethyl-2-imino-4-methyl-6-oxo-hexahydropyrimidin-1-yl]-N-[(3S,4R)-3-hydroxy-3-methyl-chroman-4-yl]chromane-6-carboxamide], the pEC50 is 8.42.
`CC1(C)CC(=O)N([C@H]2c3cc(C(=O)N[C@@H]4c5ccccc5OC(C)(C)[C@H]4O)ccc3OC2(C)C)C(=N)N1` [Example 182, (3S)-N-[(3S,4R)-3-hydroxy-2,2-dimethyl-chroman-4-yl]-3-(2-imino-4,4-dimethyl-6-oxo-hexahydropyrimidin-1-yl)-2,2-dimethyl-3H-benzofuran-5-carboxamide] had a pEC50 of 8.21.
Same read-out and setting: the figure for `CC1(C)CC(=O)N([C@@H]2CCc3ccc(C(=O)N[C@H]4CC(C)(C)Oc5ccccc54)cc32)C(=N)N1` [Example 84, (3R)-N-[(4S)-2,2-dimethylchroman-4-yl]-3-(2-imino-4,4-dimethyl-6-oxo-hexahydropyrimidin-1-yl)indane-5-carboxamide] is 9.05; for `CC[C@]1(C)CC(=O)N([C@@H]2CCOc3ccc(C(=O)N[C@@H]4C[C@@H](COC(F)F)Oc5ccccc54)cc32)C(=N)N1` [Example 267, (4R)-N-[(2S,4R)-2-(difluoromethoxymethyl)chro-man-4-yl]-4-[(4R)-4-ethyl-2-imino-4-methyl-6-oxo-hexahydropyrimidin-1-yl]chromane-6-carboxamide] it is 7.62.
The same measure, in the same setting: the figure for `CC(C)[C@]1(C)CC(=O)N([C@@H]2CC(C)(C)Oc3ccc(C(=O)N[C@H]4CCOc5ccccc54)cc32)C(=N)N1` [Example 37A, (R)-N-((S)-chroman-4-yl)-4-((S)-2-imino-4-isopropyl-4-methyl-6-oxotetrahydropyrimidin-1(2H)-yl)-2,2-dimethylchromane-6-carboxamide] is 7.13; for `CC1(C)CC(=O)N([C@H]2c3cc(C(=O)N[C@@H]4c5ccccc5OC(C)(C)[C@H]4O)ccc3CC2(C)C)C(=N)N1` [Example 162, (3R)-N-[(3S,4R)-3-hydroxy-2,2-dimethyl-chroman-4-yl]-3-(2-imino-4,4-dimethyl-6-oxo-hexahydropyrimidin-1-yl)-2,2-dimethyl-indane-5-carboxamide] it is 8.12; for `COCC1(C)Oc2ccc(C(=O)N[C@@H]3c4ccccc4OC[C@@]3(C)O)cc2C1N1C(=N)NC(C)(C)CC1=O` (stereo partly drawn) [Example 219, N-[(3S,4R)-3-hydroxy-3-methyl-chroman-4-yl]-3-(2-imino-4,4-dimethyl-6-oxo-hexahydropyrimidin-1-yl)-2-(methoxymethyl)-2-methyl-3H-benzofuran-5-carboxamide] it is 6.68.
On the same count and under the same terms, the figure for `CCC1(CC)CC(=O)N([C@H]2c3cc(C(=O)N[C@@H]4c5ccccc5OC[C@@]4(C)O)ccc3OC[C@@H]2OC)C(=N)N1` [Example 254, (3R,4S)-4-(4,4-diethyl-2-imino-6-oxo-hexahydropyrimidin-1-yl)-N-[(3S,4R)-3-hydroxy-3-methyl-chroman-4-yl]-3-methoxy-chromane-6-carboxamide] is 8.47; for `CCC1(CC)CC(=O)N([C@@H]2CCOc3ccc(C(=O)N[C@H]4C[C@H](C(F)(F)F)Oc5ccccc54)cc32)C(=N)N1` [Example 6A, (R)-4-(4,4-diethyl-2-imino-6-oxotetrahydropyrimidin-1(2H)-yl)-N-((2R,4S)-2-(trifluoromethyl)chroman-4-yl)chromane-6-carboxamide] it is 8.96.
In the case of `CC1(C)CC(=O)N(C2c3cc(C(=O)N[C@@H]4c5ccccc5C[C@H]4O)ccc3OC2(C)C)C(=N)N1` (stereo partly drawn) [Example 91, N-[(1R,2R)-2-hydroxyindan-1-yl]-3-(2-imino-4,4-dimethyl-6-oxo-hexahydropyrimidin-1-yl)-2,2-dimethyl-3H-benzofuran-5-carboxamide], the pEC50 was 7.34. This pEC50 lies 1.62 log units lower than the previous one.
Still for that read-out and setting: the figure for `CCC1(CC)CC(=O)N([C@H]2c3cc(C(=O)N[C@@H]4c5ccccc5C[C@H]4O)ccc3CC2OC)C(=N)N1` (stereo partly drawn) [Example 140A, (3S)-3-(4,4-diethyl-1-imino-6-oxo-hexahydroyrimidin-1-yl)-N-[(1R,2R)-2-hydroxyindan-1-yl]-2-methoxy-indane-5-carboxamide] is 8.85; for `CC1(C)CC(=O)N([C@@H]2CCOc3ccc(C(=O)N[C@@H]4c5cc(Cl)cc(Cl)c5OC[C@@]4(C)O)cc32)C(=N)N1` [Example 273, (4R)-N-[(3S,4R)-6,8-dichloro-3-hydroxy-3-methyl-chroman-4-yl]-4-(2-imino-4,4-dimethyl-6-oxo-hexahydropyrimidin-1-yl)chromane-6-carboxamide] it is 8.11.
The compound `CC[C@]1(C)CC(=O)N([C@@H]2CCc3ccc(C(=O)N[C@@H]4c5ccccc5OC[C@]4(C)O)cc32)C(=N)N1` [Example 99, (3R)-3-[(4R)-4-ethyl-2-imino-4-methyl-6-oxo-hexahydropyrimidin-1-yl]-N-[(3R,4R)-3-hydroxy-3-methyl-chroman-4-yl]indane-5-carboxamide] gave a pEC50 of 8.38.
On the same count and under the same terms, the figure for `CCC1(CC)CC(=O)N(C2c3cc(C(=O)N[C@@H]4c5ccccc5C[C@@]4(C)O)ccc3OC2(COC)COC)C(=N)N1` (stereo partly drawn) [Example 297, 3-(4,4-diethyl-2-imino-6-oxo-hexahydropyrimidin-1-yl)-N-[(1R,2R)-2-hydroxy-2-methyl-indan-1-yl]-2,2-bis(methoxymethyl)-3H-benzofuran-5-carboxamide] is 6.62; for `CCC1(CC)CC(=O)N([C@H]2c3cc(C(=O)N[C@H]4CC(C)(C)Oc5ccccc54)ccc3OC2(COC)COC)C(=N)N1` [Example 304, (3S)-3-(4,4-diethyl-2-imino-6-oxo-hexahydropyrimidin-1-yl)-N-[(4S)-2,2-dimethylchroman-4-yl]-2,2-bis(methoxymethyl)-3H-benzofuran-5-carboxamide] it is 8.25.
For `CCC1(CC)CC(=O)N([C@@H]2CCOc3ccc(C(=O)N[C@H]4CCOc5ccccc54)cc32)C(=N)N1` [Example 3A, (R)-N-((S)-chroman-4-yl)-4-(4,4-diethyl-2-imino-6-oxotetrahydropyrimidin-1(2H)-yl)chromane-6-carboxamide], the pEC50 was 8.66.
On to `CCC1(CC)CC(=O)N([C@@H]2CCOc3ccc(C(=O)NC4CCCOc5ccccc54)cc32)C(=N)N1` (stereo partly drawn) [Example 119, (4R)-4-(4,4-diethyl-2-imino-6-oxo-hexahydropyrimidin-1-yl)-N-(2,3,4,5-tetrahydro-1-benzoxepin-5-yl)chromane-6-carboxamide], for which the pEC50 was 8.55.
Still for that read-out and setting: the figure for `CCC1(CC)CC(=O)N([C@@H]2CC3(COC3)Oc3ccc(C(=O)N[C@@H]4c5ccccc5C[C@H]4O)cc32)C(=N)N1` [Example 23A, (R)-4-(4,4-diethyl-2-imino-6-oxotetrahydropyrimidin-1(2H)-yl)-N-((1R,2R)-2-hydroxy-2,3-dihydro-1H-inden-1-yl)spiro[chromane-2,3′-oxetane]-6-carboxamide] is 8.30.

The record behind these values is patent US12350270B2, “Antimalarial agents” (Merck Sharp & Dohme LLC, priority 2019, dated 2025).
